Results as given in US6822100B2 (Bristol-Myers Squibb Company, priority 2001, dated 2004).

Tests used:
[1] = target: T1, recombinant human dopamine D2L receptors (Homo sapiens, UniProt P14416); experiment: Dopamine Binding Assay; conditions: HEK-D2L cell membranes, 150 pM [3H]-spiperone, Cheng and Prusoff
T1 construct: expressed in transfected cells; host or cells: HEK-293 (HEK-D2L), membrane homogenates
Experimental: HEK-293 cells that stably express recombinant human dopamine D2L receptors (HEK-D2L cells) were grown at 37° C. in 5% CO2 as a monolayer in medium consisting of EMEM supplemented with 10% fetal bovine serum and G418 sulfate (500 μg/ml). To prepare membranes for radioligand binding experiments, cells were rinsed twice with phosphate-buffered saline (138 mM NaCl, 4.1 mM KCl, 5.1 mM Na2PO4, 1.5 mM KH2PO2 11.1 mM glucose, pH 7.4), and incubated for 5-10 min. at 4° C. in hypotonic lysis buffer consisting of 10 mM Tris (pH 7.4) and 5 mM EDTA. Cells were transferred from plates to polypropylene tubes (16×100 mm), homogenized and centrifuged at 32,000×g for 20 min. Following centrifugation, pellets were resuspended by homogenization in buffer consisting of 50 mM Tris (pH 7.7 at 25° C.) and 1 mM EDTA. Homogenates were stored at −80° C. until needed. On the day of an experiment, homogenates were thawed then centrifuged at 32,000×g for 20 min. Following centrifugation, supernatants were discarded and pellets were resuspended in assay buffer consisting of 50 mM Tris (pH 7.4 at 25° C.), 1 mM EDTA and 6 mM MgCl2. Membrane homogenates (˜5 μg) were incubated with 150 pM [^3H]-spiperone (Amersham Life Science) and increasing concentrations of test compounds for 1.5 hr at 22° C. in a total volume of 400 μl. Reactions were stopped by addition of ice-cold assay buffer and filtration over glass fiber filters (Whatman GFB, pre-soaked in 0.05% polyethylenimine) using a microtitre format Brandel cell harvester. Filters were washed with 3 ml of ice-cold assay buffer. Non-specific binding was defined with 2 μM (+)butaclamol. Ki values were calculated using the method of Cheng and Prusoff (1973). Protein concentrations were determined by the method of Bradford (1976) with BSA as a standard.

[2] = target: T2, human serotonin transporters (Homo sapiens, UniProt P31645); experiment: Serotonin Transporter Binding Assay; conditions: HEK-hSERT cell membranes, 1 nM [3H]-citalopram, Cheng and Prusoff; read-out: SERT Ki
T2 construct: expressed in transfected cells; host or cells: HEK-293 (HEK-hSERT), membrane homogenates
T2 sequence (P31645 whole entry): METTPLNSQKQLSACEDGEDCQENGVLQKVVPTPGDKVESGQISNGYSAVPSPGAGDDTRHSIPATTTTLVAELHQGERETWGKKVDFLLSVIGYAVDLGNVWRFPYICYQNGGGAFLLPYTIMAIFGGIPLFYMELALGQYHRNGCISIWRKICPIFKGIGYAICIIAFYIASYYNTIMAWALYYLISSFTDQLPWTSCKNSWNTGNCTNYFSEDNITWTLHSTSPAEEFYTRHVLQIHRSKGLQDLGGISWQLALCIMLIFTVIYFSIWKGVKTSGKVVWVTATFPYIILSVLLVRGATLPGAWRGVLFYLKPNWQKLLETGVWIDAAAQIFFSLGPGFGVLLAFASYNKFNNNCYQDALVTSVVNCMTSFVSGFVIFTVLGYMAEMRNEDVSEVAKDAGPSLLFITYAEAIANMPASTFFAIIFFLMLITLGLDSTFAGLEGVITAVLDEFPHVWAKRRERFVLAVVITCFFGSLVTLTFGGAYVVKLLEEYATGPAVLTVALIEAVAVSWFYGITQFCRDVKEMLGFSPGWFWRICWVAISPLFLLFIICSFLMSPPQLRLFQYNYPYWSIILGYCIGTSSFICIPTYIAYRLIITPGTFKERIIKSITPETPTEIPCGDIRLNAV
Experimental: HEK-293 cells that stably express human serotonin transporters (HEK-hSERT cells) were grown at 37° C. in 5% CO2 as a monolayer in medium consisting of EMEM supplemented with 10% fetal bovine serum and G418 sulfate (500 μg/ml). To prepare membranes for radioligand binding experiments, cells were rinsed twice with phosphate-buffered saline (138 mM NaCl, 4.1 mM KCl, 5.1 mM Na2PO4, 1.5 mM […], 11.1 mM glucose, pH 7.4). Cells were transferred from plates to polypropylene tubes (16×100 mm), centrifuged at 1,200×g for 5 min and were frozen at −80° C. until assay. Following centrifugation, pellets were resuspended by homogenization in buffer consisting of 50 mM Tris (pH 7.7 at 25° C.), 120 mM NaCl and 5 mM KCl and then centrifuged at 32,000×g for 10 min. Following centrifugation, supernatants were discarded and pellets were resuspended in buffer consisting of 50 mM Tris (pH 7.4 at 25° C.), 150 mM NaCl and 5 mM KCl. Membrane homogenates (200 μl/plate) were incubated with 1 nM [^3H]-citalopram (specific activity=85 Ci/mmol) and increasing concentrations of test compounds for 1 hr at 25° C. in a total volume of 250 μl. The assay buffer consisted of 50 mM Tris (pH 7.4 at 25° C.), 120 mM NaCl and 5 mM KCl (pH 7.4 with conc. HCl). Plates were incubated for 1 hr at 25° C., then filtered through 0.5% PEI treated Whatman GF/B filters using a Brandel cell harvester. Filters were washed three times with 3 ml of ice-cold tris wash buffer. Non-specific binding was defined with 10 μM fluoxetine. Amount of radioligand bound in the presence and absence of competitor was analyzed by plotting (−)log drug concentration versus the amount of radioligand specifically bound. The midpoint of the displacement curve (IC50, nM), signifies the potency. Ki values were calculated using the method of Cheng and Prusoff (1973).

T1 sequence (P14416 whole entry): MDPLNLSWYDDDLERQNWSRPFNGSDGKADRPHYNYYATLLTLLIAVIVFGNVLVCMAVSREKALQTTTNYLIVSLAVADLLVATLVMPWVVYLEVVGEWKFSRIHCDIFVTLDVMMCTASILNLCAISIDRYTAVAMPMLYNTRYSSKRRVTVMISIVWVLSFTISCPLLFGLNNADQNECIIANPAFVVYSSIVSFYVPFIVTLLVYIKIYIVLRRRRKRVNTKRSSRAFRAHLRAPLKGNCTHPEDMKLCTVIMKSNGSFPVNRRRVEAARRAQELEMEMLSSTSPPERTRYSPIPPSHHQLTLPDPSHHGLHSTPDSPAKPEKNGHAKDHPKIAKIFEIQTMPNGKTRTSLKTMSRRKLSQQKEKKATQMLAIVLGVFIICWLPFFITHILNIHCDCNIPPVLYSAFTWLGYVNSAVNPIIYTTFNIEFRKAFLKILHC

| Ki [1] | Ki [2] | Structure (SMILES) |
| --- | --- | --- |
| 100 to 1000 nM | 1 to 10 nM | CCCOC(=O)NCCCN(CC)C[C@@H]1C[C@H]1c1c[nH]c2ccc(C#N)cc12 (relative stereo) [Example 99, trans-2-[5-Cyanoindol-3-yl]-1-[N,N-ethyl-2-amino(propylcarbamoyl)propylaminomethyl]-cyclopropane] |
| > 1000 nM | 10 to 100 nM | CCN(CCCNC(=O)OC(C)C)C[C@@H]1C[C@H]1c1c[nH]c2ccc(C#N)cc12 (relative stereo) [Example 100, trans-2-[5-Cyanoindol-3-yl]-1-[N,N-ethyl-2-amino(isopropylcarbamoyl)propylaniinomethyl]-cyclopropane] |
| 100 to 1000 nM | 1 to 10 nM | CCCOC(=O)NCCN(C)C[C@@H]1C[C@H]1c1c[nH]c2ccc(F)cc12 (relative stereo) [Example 102] |
| 100 to 1000 nM | 1 to 10 nM | CC(C)OC(=O)NCCN(C)C[C@@H]1C[C@H]1c1c[nH]c2ccc(F)cc12 (relative stereo) [Example 103] |
| 100 to 1000 nM | 10 to 100 nM | COC(=O)NCCCN(C)C[C@@H]1C[C@H]1c1c[nH]c2ccc(F)cc12 (relative stereo) [Example 104, trans-2-[5-Fluoroindol-3-yl]-1-[N,N-methyl-2-amino(methylcarbamoyl)propylaminomethyl]-cyclopropane] |
| 100 to 1000 nM | 10 to 100 nM | CCOC(=O)NCCCN(C)C[C@@H]1C[C@H]1c1c[nH]c2ccc(F)cc12 (relative stereo) [Example 105, trans-2-[5-Fluoroindol-3-yl]-1-[N,N-methyl-2-amino(ethylcarbamoyl)propylaminomethyl]-cyclopropane] |
| 100 to 1000 nM | 10 to 100 nM | CCCOC(=O)NCCCN(C)C[C@@H]1C[C@H]1c1c[nH]c2ccc(F)cc12 (relative stereo) [Example 106, trans-2-[5-Fluoroindol-3-yl]-1-[N,N-methyl-2-amino(propylcarbamoyl)propylaminomethyl]-cyclopropane] |
| 100 to 1000 nM | 10 to 100 nM | CC(C)OC(=O)NCCCN(C)C[C@@H]1C[C@H]1c1c[nH]c2ccc(F)cc12 (relative stereo) [Example 107, trans-2-[5-Fluoroindol-3-yl]-1-[N,N-methyl-2-amino(isopropylcarbamoyl)propylaminomethyl]-cyclopropane] |
| 100 to 1000 nM | 10 to 100 nM | CCN(CCNC(=O)OC)C[C@@H]1C[C@H]1c1c[nH]c2ccc(F)cc12 (relative stereo) [Example 108, trans-1-[N,N-Ethyl-2-amino(methylcarbamoyl)ethylaminomethyl]-2-[5-fluoroindol-3-yl]-cyclopropane] |
| 100 to 1000 nM | 1 to 10 nM | CCOC(=O)NCCN(CC)C[C@@H]1C[C@H]1c1c[nH]c2ccc(F)cc12 (relative stereo) [Example 109] |
| 100 to 1000 nM | 1 to 10 nM | CCCOC(=O)NCCN(CC)C[C@@H]1C[C@H]1c1c[nH]c2ccc(F)cc12 (relative stereo) [Example 110, trans-1-[N,N-Ethyl-2-amino(propylcarbamoyl)ethylaminomethyl]-2-[5-fluoroindol-3-yl]-cyclopropane] |
| 10 to 100 nM | 1 to 10 nM | CCN(CCNC(=O)OC(C)C)C[C@@H]1C[C@H]1c1c[nH]c2ccc(F)cc12 (relative stereo) [Example 111] |
| 100 to 1000 nM | 10 to 100 nM | CCN(CCCNC(=O)OC)C[C@@H]1C[C@H]1c1c[nH]c2ccc(F)cc12 (relative stereo) [Example 112, trans-1-[N,N-Ethyl-2-amino(methylcarbamoyl)propylaminomethyl]-2-[5-fluoroindol-3-yl]-cyclopropane] |
| 100 to 1000 nM | 10 to 100 nM | CCOC(=O)NCCCN(CC)C[C@@H]1C[C@H]1c1c[nH]c2ccc(F)cc12 (relative stereo) [Example 113] |
| 100 to 1000 nM | 10 to 100 nM | CCCOC(=O)NCCCN(CC)C[C@@H]1C[C@H]1c1c[nH]c2ccc(F)cc12 (relative stereo) [Example 114, trans-1-[N,N-Ethyl-2-amino(propylcarbamoyl)propylaminomethyl]-2-[5-fluoroindol-3-yl]-cyclopropane] |

The next lines start with the compound.

| Structure (SMILES) | Ki [1] | Ki [2] |
| --- | --- | --- |
| CCCOC(=O)NCCN(C)C[C@@H]1C[C@H]1c1c[nH]c2ccc(C#N)cc12 (relative stereo) [Example 88, trans-2-[5-Cyanoindol-3-yl]-1-[N,N-methyl-2-amino(propylcarbamoyl)ethylaminomethyl]-cyclopropane] | > 1000 nM | 1 to 10 nM |
| COC(=O)NCCCN(C)C[C@@H]1C[C@H]1c1c[nH]c2ccc(C#N)cc12 (relative stereo) [Example 89, trans-2-[5-Cyanoindol-3-yl]-1-[N,N-methyl-2-amino(methylcarbamoyl)propylaminomethyl]-cyclopropane] | > 1000 nM | 1 to 10 nM |
| CCOC(=O)NCCCN(C)C[C@@H]1C[C@H]1c1c[nH]c2ccc(C#N)cc12 (relative stereo) [Example 90, trans-2-[5-Cyanoindol-3-yl]-1-[N,N-methyl-2-amino(ethylcarbamoyl)propylaminomethyl]-cyclopropane] | 100 to 1000 nM | 1 to 10 nM |
| CCCOC(=O)NCCCN(C)C[C@@H]1C[C@H]1c1c[nH]c2ccc(C#N)cc12 (relative stereo) [Example 91, trans-2-[5-Cyanoindol-3-yl]-1-[N,N-methyl-2-amino(propylcarbamoyl)propylaminomethyl]-cyclopropane] | 10 to 100 nM | 1 to 10 nM |
| CCN(CCNC(=O)OC)C[C@@H]1C[C@H]1c1c[nH]c2ccc(C#N)cc12 (relative stereo) [Example 93, trans-2-[5-Cyanoindol-3-yl]-1-[N,N-ethyl-2-amino(methylcarbamoyl)ethylaminomethyl]-cyclopropane] | > 1000 nM | 1 to 10 nM |
| CCOC(=O)NCCN(CC)C[C@@H]1C[C@H]1c1c[nH]c2ccc(C#N)cc12 (relative stereo) [Example 94, trans-2-[5-Cyanoindol-3-yl]-1-[N,N-ethyl-2-amino(ethylcarbamoyl)ethylaminomethyl]-cyclopropane] | > 1000 nM | < 1 nM |
| CCCOC(=O)NCCN(CC)C[C@@H]1C[C@H]1c1c[nH]c2ccc(C#N)cc12 (relative stereo) [Example 95, trans-2-[5-Cyanoindol-3-yl]-1-[N,N-ethyl-2-amino(propylcarbamoyl)ethylaminomethyl]-cyclopropane] | > 1000 nM | 1 to 10 nM |
| CCN(CCNC(=O)OC(C)C)C[C@@H]1C[C@H]1c1c[nH]c2ccc(C#N)cc12 (relative stereo) [Example 96, trans-2-[5-Cyanoindol-3-yl]-1-[N,N-ethyl-2-amino(isopropylcarbamoyl)ethylaminomethyl]-cyclopropane] | 100 to 1000 nM | 1 to 10 nM |
| CCN(CCCNC(=O)OC)C[C@@H]1C[C@H]1c1c[nH]c2ccc(C#N)cc12 (relative stereo) [Example 97, trans-2-[5-Cyanoindol-3-yl]-1-[N,N-ethyl-2-amino(methylcarbamoyl)propylaminomethyl]-cyclopropane] | 100 to 1000 nM | 1 to 10 nM |
| CCOC(=O)NCCCN(CC)C[C@@H]1C[C@H]1c1c[nH]c2ccc(C#N)cc12 (relative stereo) [Example 98, trans-2-[5-Cyanoindol-3-yl]-1-[N,N-ethyl-2-amino(ethylcarbamoyl)propylaminomethyl]-cyclopropane] | 100 to 1000 nM | 1 to 10 nM |
